Reference: patent publication US11149018B2, “Substituted N-arylethyl-2-aminoquinoline-4-carboxamides and use thereof” (Bayer Aktiengesellschaft, priority 2017, dated 2021)

How the values were obtained:
[1] = tested on: C57Bl6J mice with DQ12 silica-induced pulmonary fibrosis; test: Silica-induced pulmonary fibrosis in mice, therapeutic chronic 30-day study; assay type: in vivo, mouse; settings: 10 and 30 mg/kg po bid, versus silica-treated control
Experimental: B-23. Silica-Induced Pulmonary Fibrosis in Mice: Therapeutic Chronic 30-Day Study with FP Antagonists
Adult female C57Bl6J mice (Charles River Laboratories, Sulzfeld, Germany) having a weight of 18-20 g were anaesthetized in a chamber with isoflurane (3% v/v) and treated intratracheally with 2.5 mg of crystalline DQ12 silica dissolved in 70 μL of sterile phosphate-buffered saline. Untreated control mice received the same volume of phosphate-buffered saline. […] 30 days after the installation of silica, the animals were anaesthetized with an intraperitoneal injection of ketamine/medetomidine (50 mg/kg and 0.33 mg/kg) combined with a subcutaneous injection of Temgesic (0.06 mg/kg) and sacrifice by exsanguination. Thereafter, the trachea was cannulated, and the animals' lungs were lavaged three times with 0.5 ml of ice-cold phosphate-buffered saline. Thereafter, the lungs were removed, weighed and shock-frozen in dry ice. […] The data are mean values±SEM of 8-12 animals per group. The statistical analysis was conducted with the unpaired Student's t test. P values<0.05 were considered to be significant.

[2] = target: FP receptor (Homo sapiens (Human), UniProt P43088); test: In vitro test of inhibition of human FP receptor activity (PGF2α-induced calcium flux in FP-expressing CHEM1 cells); assay type: cell-based; settings: PGF2α 2 nM, some mean values of multiple determinations
Method in brief: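 FP antagonism in FP-expressing CHEM1 cells loaded with Fluo-8. Compound preincubated 10 min at 37° C, then receptor stimulated with 2 nM (final) PGF2α in calcium-free Tyrode with 2 mM CaCl2.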

Sequence of FP receptor (P43088 whole entry): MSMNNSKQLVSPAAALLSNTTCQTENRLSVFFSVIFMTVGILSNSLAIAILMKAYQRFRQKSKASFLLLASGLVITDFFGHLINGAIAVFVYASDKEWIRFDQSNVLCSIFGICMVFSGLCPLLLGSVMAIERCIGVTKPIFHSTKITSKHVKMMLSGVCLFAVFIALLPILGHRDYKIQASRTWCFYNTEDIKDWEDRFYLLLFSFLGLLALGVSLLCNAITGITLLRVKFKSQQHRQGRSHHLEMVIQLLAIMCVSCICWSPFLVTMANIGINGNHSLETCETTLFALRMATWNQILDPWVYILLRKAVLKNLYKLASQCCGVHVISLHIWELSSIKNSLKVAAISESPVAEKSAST

Compound	IC50 [2]	Hydroxyproline formation and fibrosis (result in words) [1]
Cc1c(N2CCCC2)nc2ccc(Br)cc2c1C(=O)NCC(CCC(=O)O)c1ccccc1Cl (single isomer, unassigned; (+)) [Example 35, (+)-5-({[6-bromo-3-methyl-2-(pyrrolidin-1-yl)quinolin-4-yl]carbonyl}amino)-4-(2-chlorophenyl)pentanoic acid]		significant reduction in the hydroxyproline formation and fibrosis
Cc1c(N2CCCC(C(C)C)C2)nc2ccc(Br)cc2c1C(=O)NCC(CCC(=O)O)c1ccccc1Cl (stereo not drawn) [Example 91, 5-[({6-Bromo-2-[3-isopropylpiperidin-1-yl]-3-methylquinolin-4-yl}carbonyl)amino]-4-(2-chlorophenyl)pentanoic acid]	9.9 nM	
COCC1CCCN(c2nc3ccc(Br)cc3c(C(=O)NCC(CCC(=O)O)c3ccccc3Cl)c2C)C1 (stereo not drawn) [Example 93, 5-[({6-Bromo-2-[3-(methoxymethyl)piperidin-1-yl]-3-methylquinolin-4-yl}carbonyl)amino]-4-(2-chlorophenyl)pentanoic acid]	80 nM	
Cc1c(N2CCCCC2C)nc2ccc(Br)cc2c1C(=O)NCC(CCC(=O)O)c1ccccc1Cl (stereo not drawn) [Example 108, 5-[({6-Bromo-3-methyl-2-[2-methylpiperidin-1-yl]quinolin-4-yl}carbonyl)amino]-4-(2-chlorophenyl)pentanoic acid]	360 nM	
Cc1c(N2CCCC(F)C2)nc2ccc(Br)cc2c1C(=O)NCC(CCC(=O)O)c1ccccc1C(F)(F)F (stereo not drawn) [Example 123, 5-[({6-Bromo-2-[3-fluoropiperidin-1-yl]-3-methylquinolin-4-yl}carbonyl)amino]-4-[2-(trifluoromethyl)phenyl]pentanoic acid]	13 nM	
Cc1c(N2CCCC(F)C2)nc2ccc(Br)cc2c1C(=O)NCC(CCC(=O)O)c1c(Cl)ccc(Cl)c1Cl (stereo not drawn) [Example 180, 5-[({6-Bromo-2-[3-fluoropiperidin-1-yl]-3-methylquinolin-4-yl}carbonyl)amino]-4-(2,3,6-trichlorophenyl)pentanoic acid]	14 nM	
Cc1c(N2CCCC(F)C2)nc2ccc(Br)cc2c1C(=O)NCC(CCC(=O)O)c1c(F)cccc1F (stereo not drawn) [Example 253, 5-[({6-Bromo-2-(3-fluoropiperidin-1-yl)-3-methylquinolin-4-yl}carbonyl)amino]-4-(2,6-difluorophenyl)pentanoic acid]	25 nM	
Cc1c(N2CCCC(F)C2)nc2ccc(Br)cc2c1C(=O)NCC(CCC(=O)O)c1cc(F)ccc1F (stereo not drawn) [Example 264, 5-[({6-Bromo-2-(3-fluoropiperidin-1-yl)-3-methylquinolin-4-yl}carbonyl)amino]-4-(2,5-difluorophenyl)pentanoic acid]	30 nM	
(+)-5-({[6-Bromo-3-methyl-2-(piperidin-1-yl)quinolin-4-yl]carbonyl}amino)-4-(2,3,6-trichlorophenyl)pentanoic acid [Example 175]	160 nM	
(+)-5-[({6-Bromo-3-methyl-2-[(^2H8)pyrrolidin-1-yl]quinolin-4-yl}carbonyl)amino]-4-[2-(trifluoromethyl)phenyl]pentanoic acid [Example 278]	34 nM	

Continued, in another order:

IC50 [2]	Compound	Hydroxyproline formation and fibrosis (result in words) [1]
2.8 nM	CCC1CCCN(c2nc3ccc(Br)cc3c(C(=O)NCC(CCC(=O)O)c3ccccc3C(F)(F)F)c2C)C1 (stereo not drawn) [Example 124, 5-[({6-Bromo-2-[3-ethylpiperidin-1-yl]-3-methylquinolin-4-yl}carbonyl)amino]-4-[2-(trifluoromethyl)phenyl]pentanoic acid]	
5.2 nM	Cc1c(N2CCCC(C)C2)nc2ccc(Br)cc2c1C(=O)NCC(CCC(=O)O)c1ccccc1C(F)(F)F (stereo not drawn) [Example 125, 5-[({6-Bromo-3-methyl-2-[3-methylpiperidin-1-yl]quinolin-4-yl}carbonyl)amino]-4-[2-(trifluoromethyl)phenyl]pentanoic acid]	
3 nM	Cc1c(N2CCCC(F)C2)nc2ccc(Br)cc2c1C(=O)NCC(CCC(=O)O)c1ccccc1OC(F)(F)F (stereo not drawn) [Example 138, 5-[({6-Bromo-2-[3-fluoropiperidin-1-yl]-3-methylquinolin-4-yl}carbonyl)amino]-4-[2-(trifluoromethoxy)phenyl]pentanoic acid]	
1.5 nM	CCC1CCCN(c2nc3ccc(Br)cc3c(C(=O)NCC(CCC(=O)O)c3ccccc3OC(F)(F)F)c2C)C1 (stereo not drawn) [Example 139, 5-[({6-Bromo-2-[3-ethylpiperidin-1-yl]-3-methylquinolin-4-yl}carbonyl)amino]-4-[2-(trifluoromethoxy)phenyl]pentanoic acid]	
2.3 nM	Cc1c(N2CCCC(C)C2)nc2ccc(Br)cc2c1C(=O)NCC(CCC(=O)O)c1ccccc1OC(F)(F)F (stereo not drawn) [Example 140, 5-[({6-Bromo-3-methyl-2-[3-methylpiperidin-1-yl]quinolin-4-yl}carbonyl)amino]-4-[2-(trifluoromethoxy)phenyl]pentanoic acid]	
2.5 nM	Cc1c(N2CCCC(F)C2)nc2ccc(Br)cc2c1C(=O)NCC(CCC(=O)O)c1c(F)ccc(F)c1Cl (stereo not drawn) [Example 156, 5-[({6-Bromo-2-[3-fluoropiperidin-1-yl]-3-methylquinolin-4-yl}carbonyl)amino]-4-(2-chloro-3,6-difluorophenyl)pentanoic acid]	
1.7 nM	Cc1c(N2CCCC(C)C2)nc2ccc(Br)cc2c1C(=O)NCC(CCC(=O)O)c1c(F)ccc(F)c1Cl (stereo not drawn) [Example 157, 5-[({6-Bromo-3-methyl-2-[3-methylpiperidin-1-yl]quinolin-4-yl}carbonyl)amino]-4-(2-chloro-3,6-difluorophenyl)pentanoic acid]	
1.6 nM	CCC1CCCN(c2nc3ccc(Br)cc3c(C(=O)NCC(CCC(=O)O)c3c(F)ccc(F)c3Cl)c2C)C1 (stereo not drawn) [Example 158, 5-[({6-Bromo-2-[3-ethylpiperidin-1-yl]-3-methylquinolin-4-yl}carbonyl)amino]-4-(2-chloro-3,6-difluorophenyl)pentanoic acid]	
9.1 nM	Cc1c(N2CCCC(F)C2)nc2ccc(Br)cc2c1C(=O)NCC(CCC(=O)O)c1c(F)cccc1C(F)(F)F (stereo not drawn) [Example 169, 5-[({6-Bromo-2-[3-fluoropiperidin-1-yl]-3-methylquinolin-4-yl}carbonyl)amino]-4-[2-fluoro-6-(trifluoromethyl)phenyl]pentanoic acid]	
2.7 nM	CCC1CCCN(c2nc3ccc(Br)cc3c(C(=O)NCC(CCC(=O)O)c3c(F)cccc3C(F)(F)F)c2C)C1 (stereo not drawn) [Example 170, 5-[({6-Bromo-2-[3-ethylpiperidin-1-yl]-3-methylquinolin-4-yl}carbonyl)amino]-4-[2-fluoro-6-(trifluoromethyl)phenyl]pentanoic acid]	
6.6 nM	CCC1CCCN(c2nc3ccc(Br)cc3c(C(=O)NCC(CCC(=O)O)c3c(Cl)ccc(Cl)c3Cl)c2C)C1 (stereo not drawn) [Example 181, 5-[({6-Bromo-2-[3-ethylpiperidin-1-yl]-3-methylquinolin-4-yl}carbonyl)amino]-4-(2,3,6-trichlorophenyl)pentanoic acid]	
2.8 nM	CCC1CCCN(c2nc3ccc(Br)cc3c(C(=O)NCC(CCC(=O)O)c3c(F)cccc3F)c2C)C1 (stereo not drawn) [Example 254, 5-[({6-Bromo-2-(3-ethylpiperidin-1-yl)-3-methylquinolin-4-yl}carbonyl)amino]-4-(2,6-difluorophenyl)pentanoic acid]	
3.3 nM	(+)-5-[({6-Bromo-3-methyl-2-[(^2H10)piperidin-1-yl]quinolin-4-yl}carbonyl)amino]-4-[2-(trifluoromethyl)phenyl]pentanoic acid [Example 270]	
0.85 nM	(−)-5-[({6-Bromo-3-methyl-2-[(^2H10)piperidin-1-yl]quinolin-4-yl}carbonyl)amino]-4-[2-(trifluoromethoxy)phenyl]pentanoic acid [Example 272]	
